Assay results taken from patent publication US20250179125A1, “Alpha-sheet Polypeptides and Their Use” (University of Washington, priority 2021, published 2025).
Bridge positions count the residues as written; N and C are the ends. Square brackets hold non-standard residues; d marks the D form. Peptide text beside a SMILES is read from it. I, II: the chains in the order shown.

Key:
Aβ42 = target: T1, Aβ42 (Homo sapiens, UniProt P05067); type: biochemical; conditions: 7500.0
T1 construct: Remove Aβ42 film(s) from −80° C
T1 sequence (P05067 672-713 limits assumed): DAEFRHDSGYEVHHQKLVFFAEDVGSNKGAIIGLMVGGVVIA
Method: Peptides were co-incubated with 75 μM Aβ in PBS aggregation buffer and monitored for β-sheet formation via ThT fluorescence over time. In each case, AB alone (ie Aβ aggregating in PBS without any inhibitor) was run as the standard control and used for calculating % inhibition by the following equation:
Importantly, each value had its corresponding ‘blank’ subtracted from the raw data, ie: End Inhibitor value=Raw value at the end of the assay-value for peptide alone in PBS at the given concentration.
The ‘blank’ values never exceeded more than 2× starting Aβ value to ensure that overcorrection is not the source of efficacy in data processing-end Aβ value was on average 20× starting Aβ value. Peptide concentration was varied while Aβ concentration remained fixed to investigate the potency of the designs at equal- and sub-stoichiometric ratios of AP: Aβ (ratios investigated include 1:1, 1:10, and 1:100). […]
Inhibition of Abeta aggregation was assessed in our standard ThT assay and the results can be compared to those in the table comparing different peptides in their monomeric and dimeric forms with 10-fold excess of Abeta.
Aβ aggregation and fibril formation, as well as inhibition experiments with α-sheet peptides, were monitored via ThT fluorescence according to the procedure, as follows. […]

[1] = tested on: E. coli UTI89 WT biofilms; test: Biofilm ThT assay in live E. coli UTI89 WT; type: cell-based; conditions: 48 h growth, dimers 1-8 μM, monomers double
Method: FIG. 2. Protocol to test inhibition of biofilm amyloid formation in live E. coli. Amyloid formation is assessed through a ThT assay like that used with Abeta and IAPP above. In addition, inhibition of amyloid disrupts the biofilm, leading to an increase in planktonic free-floating bacteria cells, which are then susceptible to antibiotics.
(§1) FIG. 4(a-b). Inhibition of amyloid formation by alpha-sheet designs in live E. coli clinical isolates. […] The concentrations are provided for the dimers, but the P1 and AP5 monomers were double that concentration to provide the same number of monomer units for comparison of the designs (ex. where it says 5 μM applied AP5, it was actually 10 μM). cNFU=corrected, normalized fluorescence units, where normalized signals were corrected by the nonspecific ThT fluorescence of E. coli UTI89 ΔcsgA biofilms. (b) Synthetic α-sheet peptides AP193 and AP195 decreased the ThT fluorescence of E. coli GERB319 biofilms, a clinical UTI isolate with resistance to gentamicin and ciprofloxacin (the dimeric peptides were added at 8 μM and AP5 and P1 were 16 μM to provide the same monomer equivalents). The unstructured control peptide P1 had no effect when applied at the same concentration. […]
Overnight cultures were grown in LB medium for ˜18 h. […] Peptide stocks were dissolved in water and concentrations were determined by Nanodrop™ (Thermo Scientific; Waltham, MA). […]

E. coli GERB319 biofilms = test: Biofilm ThT assay in clinical isolate E. coli GERB319; type: cell-based; conditions: dimeric peptides 8 μM, AP5 and P1 16 μM
Method: as §1
Overnight cultures were grown in LB medium for ˜18 h. […] Peptide stocks were dissolved in water and concentrations were determined by Nanodrop™ (Thermo Scientific; Waltham, MA). […] Planktonic cells were spun down and resuspended in PBS, and the optical density of both planktonic and rinse samples was determined at 600 nm to estimate cell densities. […] 100 μL of each biofilm suspension was then transferred to a black-walled, clear-bottom 96 well plate for measurements in a plate reader (PerkinElmer; Waltham, MA). […]

[2] = tested on: curli amyloid fibril formation in live E. coli; test: TEM of curli amyloid fibril formation in E. coli biofilms; type: cell-based; conditions: equimolar concentrations
Method: FIG. 3(a-c).TEM images reveal extensive curli amyloid fibril formation in (a) peptide-free biofilms and biofilms grown in the presence of (c) P1, but not those grown in the presence of (b) AP195 dimer (Scale bars=2 μm). P1 and AP195 were added at equimolar concentrations. AP195 is an α-sheet peptide and P1 is a random coil control.
The random coil peptide control (P1) had no effect.

CSCC[C@H](NC(=O)[C@@H](CCC(=O)O)NC(=O)CNC(=O)[C@@H](CCCNC(=N)N)NC(C)=O)C(=O)N[C@H](CC(N)=O)C(=O)N[C@@H](CC(C)C)C(=O)N[C@H](CO)C(=O)N[C@@H](Cc1c[nH]c2ccccc12)C(=O)N[C@H](CCSC)C(=O)N[C@H](CC(N)=O)C(=O)N[C@H](CCC(=O)O)C(=O)N[C@H](Cc1ccc(O)cc1)C(=O)N[C@H](Cc1ccc(O)cc1)C(=O)NCC(=O)N[C@H](Cc1c[nH]c2ccccc12)C(=O)N[C@H](C(=O)N[C@H](CCSC)C(=O)N[C@@H](CC(N)=O)C(=O)N[C@H](CCSC)C(=O)N[C@@H](CCCCN)C(=O)N[C@H](CS)C(=O)NCC(=O)N[C@H](CCCNC(=N)N)C(N)=O)[C@@H](C)O [AP527m, Ac-rGeMnLsWmneyyGwTmNmKcGr-NH2] (Ac-[dR]G[dE]M[dN]L[dS]W[dM][dN][dE][dY][dY]G[dW]T[dM]N[dM]K[dC]G[dR]-NH2)
% Inhibition 1:10 (AP peptide:Abeta42) (Aβ42): 14%

I: Ac-RGN[dW]N[dE]S[dK]MNEYSGW[dM]L[dM]C[dT]MGR-NH2 / II: Ac-RGN[dW]N[dE]S[dK]MNEYSGW[dM]L[dM]C[dT]MGR-NH2 (disulfide I:19-II:19) [AP500d, Ac-RGNwNeSkMNEYSGWmLmCtMGR-NH2]
amyloid content in biofilms, ThT fluorescence (cNFU) [1]: dose-dependent reduction
ThT fluorescence of biofilms (E. coli GERB319 biofilms): significant decrease
curli amyloid fibril formation (TEM) [2]: inhibition of fibril formation

I: Ac-[dR]G[dE]M[dN]L[dS]W[dM][dN][dE][dY][dY]G[dW]T[dM]N[dM]K[dC]G[dR]-NH2 / II: Ac-[dR]G[dE]M[dN]L[dS]W[dM][dN][dE][dY][dY]G[dW]T[dM]N[dM]K[dC]G[dR]-NH2 (disulfide I:21-II:21) [AP527d, Ac-rGeMnLsWmneyyGwTmNmKcGr-NH2]
% Inhibition 1:10 (AP peptide:Abeta42) (Aβ42): 96%
